Experimental data taken from PMC8756595 (ACS Omega, 2021).

Target: bovine erythrocyte CA II (bCA-II) (Bos taurus, UniProt P00921)
Assay: In vitro carbonic anhydrase inhibition assay
Assay type: biochemical
Details: for % inhibition: bCA-II, substrate 4-NPA, 25 °C, pH 7.4, test concentration not given; for inhibition activity against bCA-II (in words): qualitative statement

bovine erythrocyte CA II (bCA-II), sequence (P00921 whole entry): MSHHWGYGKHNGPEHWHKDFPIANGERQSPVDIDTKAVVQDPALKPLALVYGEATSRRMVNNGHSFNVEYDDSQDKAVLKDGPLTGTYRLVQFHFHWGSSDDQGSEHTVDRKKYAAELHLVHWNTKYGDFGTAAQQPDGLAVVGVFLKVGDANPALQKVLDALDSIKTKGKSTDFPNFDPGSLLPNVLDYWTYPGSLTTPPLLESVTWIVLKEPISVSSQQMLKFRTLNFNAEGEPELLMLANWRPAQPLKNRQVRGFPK

Compound | IC50 | % inhibition | inhibition activity against bCA-II (in words)
CCCSc1nc2ccccc2n1CC(=O)NN=Cc1ccc(C(C)C)cc1 [Compound 22, N′-(4-Isopropylbenzylidene)-2-(2-(propylthio)-1H-benzo[d]imidazol-1-yl)acetohydrazide] | 24.7 ± 3 µM | 90.1% | 
CCCSc1nc2ccccc2n1CC(=O)NN=Cc1ccc(C=O)cc1 [Compound 21, N′-(4-Formylbenzylidene)-2-(2-(propylthio)-1H-benzo[d]imidazol-1-yl)acetohydrazide] |  | 42.2% | inactive
CCCSc1nc2ccccc2n1CC(=O)NN=Cc1cccs1 [Compound 23, 2-(2-(Propylthio)-1H-benzo[d]imidazol-1-yl)-N′-(thiophen-2-ylmethylene)acetohydrazide] | 24.8 ± 1.24 µM | 89.8% | 
CCCSc1nc2ccccc2n1CC(=O)NN=Cc1ccc(N(CC)CC)cc1 [Compound 16, N′-(4-(Diethylamino)benzylidene)-2-(2-(propylthio)-1H-benzo[d]imidazol-1-yl)acetohydrazide] |  | 5.6% | inactive
CCCSc1nc2ccccc2n1CC(=O)NN=Cc1ccc(O)cc1O [Compound 14, N′-(2,4-Dihydroxybenzylidene)-2-(2-(propylthio)-1H-benzo[d]imidazol-1-yl)acetohydrazide] |  | 20.8% | inactive
CCCSc1nc2ccccc2n1CC(=O)NN=Cc1ccco1 [Compound 25, N′-(Furan-2-ylmethylene)-2-(2-(propylthio)-1H-benzo[d]imidazol-1-yl)acetohydrazide] | 193 ± 3.24 µM | 57.0% | least active inhibitors
CCCSc1nc2ccccc2n1CC(=O)NN=Cc1cccc2ccccc12 [Compound 12, N′-(Naphthalen-1-ylmethylene)-2-(2-(propylthio)-1H-benzo[d]imidazol-1-yl)acetohydrazide] | 14.6 ± 0.62 µM | 91.7% | 
CCCSc1nc2ccccc2n1CC(=O)NN=Cc1c(Cl)cccc1Cl [Compound 28, N′-(2,6-Dichlorobenzylidene)-2-(2-(propylthio)-1H-benzo[d]imidazol-1-yl)acetohydrazide] | 42.1 ± 1.39 µM | 67.6% | least active inhibitors
CCCSc1nc2ccccc2n1CC(=O)NN=Cc1ccc(C)o1 [Compound 26, N′-((5-Methylfuran-2-yl)methylene)-2-(2-(propylthio)-1H-benzo[d]imidazol-1-yl)acetohydrazide] | 166 ± 1.61 µM | 67.8% | least active inhibitors

Now from value to molecule:

IC50 | % inhibition | inhibition activity against bCA-II (in words) | Compound
22.7 ± 1.37 µM | 81.2% |  | CCCSc1nc2ccccc2n1CC(=O)NN=Cc1ccc(O)c(OC)c1 [Compound 18, N′-(4-Hydroxy-3-methoxybenzylidene)-2-(2-(propylthio)-1H-benzo[d]imidazol-1-yl)acetohydrazide]
14.5 ± 1.05 µM | 91.2% |  | CCCSc1nc2ccccc2n1CC(=O)NN=Cc1ccc(OC)cc1OC [Compound 15, N′-(2,4-Dimethoxybenzylidene)-2-(2-(propylthio)-1H-benzo[d]imidazol-1-yl)acetohydrazide]
 | 38.1% | inactive | CCCSc1nc2ccccc2n1CC(=O)NN=Cc1ccc(OC)c(OC)c1 [Compound 13, N′-(3,4-Dimethoxybenzylidene)-2-(2-(propylthio)-1H-benzo[d]imidazol-1-yl)acetohydrazide]
21 ± 0.74 µM | 88.2% |  | CCCSc1nc2ccccc2n1CC(=O)NN=Cc1ccccc1OC [Compound 29, N′-(2-Methoxybenzylidene)-2-(2-(propylthio)-1H-benzo[d]imidazol-1-yl)acetohydrazide]
 | 13.6% | inactive | CCCSc1nc2ccccc2n1CC(=O)NN=Cc1ccc(C)cc1 [Compound 19, N′-(4-Methylbenzylidene)-2-(2-(propylthio)-1H-benzo[d]imidazol-1-yl)acetohydrazide]
55.6 ± 4.25 µM | 89.6% | least active inhibitors | CCCSc1nc2ccccc2n1CC(=O)NN=Cc1cccc(OC)c1OC [Compound 27, N′-(2,3-Dimethoxybenzylidene)-2-(2-(propylthio)-1H-benzo[d]imidazol-1-yl)acetohydrazide]
 | 22.8% | inactive | CCCSc1nc2ccccc2n1CC(=O)NN=Cc1cccc(OC)c1 [Compound 11, N′-(3-Methoxybenzylidene)-2-(2-(propylthio)-1H-benzo[d]imidazol-1-yl)acetohydrazide]
31.4 ± 2.29 µM | 90.7% | least active inhibitors | CCCSc1nc2ccccc2n1CC(=O)NN=Cc1cccc(O)c1 [Compound 17, N′-(3-Hydroxybenzylidene)-2-(2-(propylthio)-1H-benzo[d]imidazol-1-yl)acetohydrazide]
45.5 ± 2.07 µM | 67.7% | least active inhibitors | CCCSc1nc2ccccc2n1CC(=O)NN=Cc1ccc(O)c(OCC)c1 [Compound 20, N′-(3-Ethoxy-4-hydroxybenzylidene)-2-(2-(propylthio)-1H-benzo[d]imidazol-1-yl)acetohydrazide]
17.2 ± 1.24 µM | 83.0% |  | CCCSc1nc2ccccc2n1CC(=O)NN=Cc1ccccc1 [Compound 10, N′-Benzylidene-2-(2-(propylthio)-1H-benzo[d]imidazol-1-yl)acetohydrazide]
13.3 ± 1.25 µM | 89.1% |  | CCCSc1nc2ccccc2n1CC(=O)NN=Cc1cccc(OC)c1O [Compound 9, N′-(2-Hydroxy-3-methoxybenzylidene)-2-(2-(propylthio)-1H-benzo[d]imidazol-1-yl)acetohydrazide]
162 ± 3.54 µM | 84.3% | least active inhibitors | CCCSc1nc2ccccc2n1CC(=O)NN=Cc1ccc(F)cc1 [Compound 24, N′-(4-Fluorobenzylidene)-2-(2-(propylthio)-1H-benzo[d]imidazol-1-yl)acetohydrazide]
